Results from BindingDB's records for doi:10.7270/Q2ZP450S (Catholic University of Daegu, 2017).

Biological target: T1, Tyrosine-protein phosphatase non-receptor type 1 (Homo sapiens, UniProt P18031)
T1 sequence (P18031 whole entry): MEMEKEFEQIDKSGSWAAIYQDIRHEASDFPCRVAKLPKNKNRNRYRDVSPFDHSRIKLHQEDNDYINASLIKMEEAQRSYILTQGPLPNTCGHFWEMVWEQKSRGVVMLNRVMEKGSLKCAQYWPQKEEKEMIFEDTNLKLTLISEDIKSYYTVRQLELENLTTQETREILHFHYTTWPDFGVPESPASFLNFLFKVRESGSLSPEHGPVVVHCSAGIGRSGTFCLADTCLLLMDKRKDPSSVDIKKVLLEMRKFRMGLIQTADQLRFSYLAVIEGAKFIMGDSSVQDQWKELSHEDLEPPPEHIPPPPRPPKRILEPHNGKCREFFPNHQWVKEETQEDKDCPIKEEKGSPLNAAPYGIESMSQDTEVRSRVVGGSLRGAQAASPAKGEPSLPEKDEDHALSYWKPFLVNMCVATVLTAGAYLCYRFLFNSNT
Experiment: PTP1B Assay
Conditions: pH 6; 37 °C
Procedure: In each 96-well plates (total 200 μL of volume), there were 2 mM p-NPP and PTP1B (0.05-0.1 μg) in a buffer containing 50 mM citrate (pH 6.0), 0.1 M NaCl, 1 mM EDTA, and 1 mM dithiothreitol (DTT) with or without test compound, following by pre-incubated at 37 °C for 10 min, and then implemented with 50 μL of p-NPP. The reaction was finally added with 10 M NaOH.

Compound: O=C1C=CC(=C(c2ccc(O)cc2)c2c(-c3ccc(O)cc3O)ccc(CO)c2C#Cc2ccc(O)cc2)C=C1 [PTP1B spring 5 (5)]
- IC50: 15.9 µM
- Ki: 13.9 µM

Compound: COc1ccc(-c2ccc(O)cc2)c(C(c2ccc(O)cc2)c2ccc(O)cc2)c1C#Cc1ccc(O)cc1 [PTP1B spring 7 (7)]
- IC50: 4.8 µM
- Ki: 3 µM

Compound: O=C1C=CC(=C(c2ccc(O)cc2)c2c(C#Cc3ccc(O)cc3)cccc2-c2ccc(O)cc2)C=C1 [Selaginellin T (1)]
- IC50: 58 µM

Compound: Cc1ccc(-c2ccc(O)cc2)c(C(=C2C=CC(=O)C=C2)c2ccc(O)cc2)c1C#Cc1ccc(O)cc1 [Selaginellin U (2)]
- IC50: 13.8 µM
- Ki: 9.7 µM

Compound: COc1cc(C#Cc2c(CO)ccc(-c3ccc(O)cc3)c2C(=C2C=CC(=O)C=C2)c2ccc(O)cc2)ccc1O [Selaginellin V (3)]
- IC50: 14.5 µM
- Ki: 11.3 µM

Compound: O=C1C=CC(=C(c2ccc(O)cc2)c2c(C#Cc3ccc(O)cc3)cccc2-c2ccc(O)cc2O)C=C1 [Selaginellin W (4)]
- IC50: 14.6 µM
- Ki: 11.1 µM
